# Assay results as given in PubChem BioAssay AID820 (PCMD, 2007).
# Records with an inconclusive call do not appear. Active and inactive are the calls of the source. How the calls were made is not given here.
# Target: Cathepsin B (Homo sapiens) (UniProt P07858)
# Assay: inhibitor potency against CatB, confirmatory, in vitro biochemical, concentration-effect curve (AID 820)
# Settings: purified cathepsin B enzyme activity, signal read-out
row,Compound,IC50
1,CCn1nc(-c2ccccc2)nc2c(=O)n(C)c(=O)nc1-2,0.071 µM
2,COc1ccc(S(=O)(=O)n2nc(OC(=O)c3ccco3)cc2N)cc1,0.923 µM
3,N#Cc1c(N)sc(=S)c2c1CCN(Cc1ccccc1)C2,1.64 µM
4,COc1nc(N(C#N)CC(N)=O)nc(N2CCCC2)n1,14.2 µM
5,Cc1ccc(S(=O)(=O)n2nc(OC(=O)c3cccs3)cc2N)cc1,1.99 µM
6,Nc1nonc1-c1nc2ccccc2n1Cc1ccc(F)cc1,33.9 µM
7,COc1ccc(C(=O)C(OC(=O)CNC(=O)c2ccco2)c2ccccc2)cc1 (stereo unspecified),18.3 µM
8,COc1ccc(S(=O)(=O)n2nc(OC(=O)c3cccs3)cc2N)cc1,0.692 µM
9,CC(=O)OC1(C(F)(F)F)Oc2ccccc2NC1=O (stereo unspecified),0.845 µM
10,Cn1c(=O)c2c(-c3ccccc3)n(-n3cnnc3)cc2n(C)c1=O,1.19 µM
11,COc1ccc(S(=O)(=O)n2nc(OC(=O)c3ccccc3)cc2N)cc1,9.56 µM
12,Nc1cc(OC(=O)c2cccs2)nn1S(=O)(=O)c1ccccc1,0.247 µM
13,O=C(CNC(=O)c1ccco1)OCN1C(=O)c2ccccc2C1=O,8.56 µM
14,N#Cc1c(N2CCCC2)nc(N)c2c(N)nc(N3CCCC3)cc12,3.17 µM
15,O=C(OC(C(=O)NCc1cccs1)c1ccccn1)c1cccs1 (stereo unspecified),6.36 µM
16,COc1cc2c(cc1OC)-c1c(OC)c(OC)cc3c1C(C2)N(C)CC3 (stereo unspecified),> 50 µM (inactive)
17,CCSc1ccccc1C(=O)n1nnc2ccccc21,7.11 µM
18,COc1ccc(N(CC(=O)NCC2CCCO2)S(=O)(=O)c2c(C)noc2C)cc1 (stereo unspecified),> 50 µM (inactive)
19,CCCCc1[nH]nc2c1C1(C(=O)N(CC)c3ccccc31)C(C#N)=C(N)O2 (stereo unspecified),> 50 µM (inactive)
21,CCOC(=O)c1sc(=NC(=O)c2ccc(S(=O)(=O)N3CC(C)OC(C)C3)cc2)n(C)c1C (stereo unspecified),> 50 µM (inactive)

row,Compound,IC50
1,O=S(=O)(/N=S1/CC=CCN1S(=O)(=O)c1ccccc1)c1ccccc1 (stereo unspecified),9.39 µM
2,Nc1nonc1-c1noc(N2CCCCC2)n1,> 50 µM (inactive)
3,O=C(Oc1oc(-c2ccco2)nc1C=Nc1ccccc1)c1ccco1,38.5 µM
4,CC(=O)NC(=O)NC1OC(=O)C(Cl)=C1Cl (stereo unspecified),2.12 µM
5,CCC(C)[C@@H](NC(=O)OC(C)(C)C)c1nnc(S(=O)(=O)Cc2cccc(C)c2)o1 (stereo partly specified),2.09 µM
6,Cc1ccc(S(=O)(=O)n2nc(OC(=O)c3ccco3)cc2N)cc1,1.75 µM
7,CCOc1ccc(CCNC(=O)Cn2c(-c3nonc3N)nc3ccccc32)cc1OCC,> 50 µM (inactive)
8,Nc1cc(OC(=O)c2cccs2)nn1S(=O)(=O)c1ccc(F)cc1,0.435 µM
9,Nc1nc2n(n1)C1(CCCCC1)C1=C(CCCC1)N2,12.9 µM
10,CCN(C(=O)COc1cc(=O)n(C)c2ccccc12)c1cccc(Cl)c1,> 50 µM (inactive)
11,CC1=C(C)CS(=O)N(S(=O)(=O)c2ccc(Cl)cc2)C1 (stereo unspecified),4.17 µM
12,COc1ccc(C)c(Cn2c(-c3nonc3N)nc3ccccc32)c1,37.2 µM
13,Nc1nonc1-c1nc2ccccc2n1CC(=O)N1CCCCC1,44.6 µM
14,O=C1CC(c2ccco2)Cc2nc(N3CCc4ccccc4C3)ncc21 (stereo unspecified),> 50 µM (inactive)
15,CCn1nc(-c2cccs2)nc2c(=O)n(C)c(=O)nc1-2,0.0722 µM
16,COC(=O)c1ccccc1NC(=O)Cn1c(-c2nonc2N)nc2ccccc21,> 50 µM (inactive)
17,COc1ccc(S(=O)(=O)n2nc(OC(=O)c3ccc(C)cc3)cc2N)cc1,12.3 µM
18,COc1ccc(C(=O)c2no[n+]([O-])c2C(=O)c2ccc(OC)cc2)cc1,11.5 µM
19,COc1cccc(Cn2c(-c3nonc3N)nc3ccccc32)c1,46 µM
20,Nc1cc(OC(=O)c2ccco2)nn1S(=O)(=O)c1ccc(F)cc1,1.26 µM
